Test results: US10017509B2, “Macrocylic pyrimidine derivatives” (Janssen Pharmaceutica NV, priority 2014, dated 2018)

Assays:
EF2K [1] = target: T1, EF2K (Homo sapiens, UniProt O00418); test: EF2K cell-based assay (P-EF2 AlphaLISA, 2-deoxyglucose stimulated MCF10A cells); settings: 2.5 mM 2-deoxyglucose stimulated, P-EF2 Thr56, pIC50 = -log IC50 (M), read-out: eEF2K_C_PThr56 pIC50 (converted)
T1 construct: host or cells: LN-229 cell lysate
T1 sequence (O00418 1-725): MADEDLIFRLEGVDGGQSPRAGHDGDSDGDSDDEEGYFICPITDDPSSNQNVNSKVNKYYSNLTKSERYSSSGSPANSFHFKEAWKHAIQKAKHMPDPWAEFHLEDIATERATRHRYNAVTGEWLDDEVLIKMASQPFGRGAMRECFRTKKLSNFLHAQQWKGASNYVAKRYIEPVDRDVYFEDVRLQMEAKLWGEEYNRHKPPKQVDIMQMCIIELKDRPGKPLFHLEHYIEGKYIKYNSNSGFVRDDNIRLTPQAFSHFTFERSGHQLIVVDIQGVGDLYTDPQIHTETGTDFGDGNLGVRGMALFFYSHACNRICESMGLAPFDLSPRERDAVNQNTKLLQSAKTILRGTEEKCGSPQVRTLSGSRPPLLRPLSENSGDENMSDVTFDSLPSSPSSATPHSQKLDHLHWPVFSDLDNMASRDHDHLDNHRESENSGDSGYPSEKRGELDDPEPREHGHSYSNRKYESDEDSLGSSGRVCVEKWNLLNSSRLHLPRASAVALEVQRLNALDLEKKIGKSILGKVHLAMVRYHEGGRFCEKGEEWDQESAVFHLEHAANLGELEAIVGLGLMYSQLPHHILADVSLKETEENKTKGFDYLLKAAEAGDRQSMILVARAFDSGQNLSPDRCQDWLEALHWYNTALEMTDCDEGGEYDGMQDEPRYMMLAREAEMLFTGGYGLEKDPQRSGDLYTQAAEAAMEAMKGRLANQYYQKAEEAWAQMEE
How it was run: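 MCF10A cells, after 24 h culture, treated 1 h with compound then stimulated 4 h with 2.5 mM 2-deoxyglucose to activate AMPK. Lysates in M-PER with protease/phosphatase inhibitors assayed for P-EF2 by AlphaLISA; pIC50 = −log IC50 (M).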

[2] = target: Vps34 (PIK3C3 lipid kinase) (Homo sapiens, UniProt Q8NEB9); test: Biochemical Vps34 lipid kinase assay (ADP-Glo); settings: for remaining activity at 1 µM: 1 h, read-out: VPS34_1microM_% of cntrl; for remaining activity at 1 µM / VPS34_1microM_% of cntrl: single dose 1 μM compound, residual activity compared to control (DMSO); for IC50: serial half-log dilution 10 μM to 0.3 nM, pIC50 = -log IC50 (M)
How it was run: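 ADP-Glo luminescence assay of PIK3C3 (7.6 nM) with 50 µM substrate and 20 µM ATP (apparent Km) in HEPES pH 7.5, 100 mM NaCl, 3 mM MnCl2, CHAPS, DTT; 60 min, 30 °C. Single dose 1 µM (residual activity vs DMSO) or half-log series 10 µM-0.3 nM giving pIC50.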

EF2K [3] = target: T1, EF2K; test: Biochemical EF2K lysate-based kinase assay (AlphaLISA p-eEF2 Thr56); settings: pIC50 = -log IC50 (M), read-out: eEF2K_C_alphalisa pIC50 (converted)
How it was run: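 LN-229 glioblastoma lysate supplied both EF2K and eEF2 substrate; compound incubated 15 min at room temperature in pH 6.6 buffer with 10 mM Mg2+ and 10 mM ATP. EDTA-stopped; phospho-eEF2 Thr56 quantified by AlphaLISA sandwich, final read after overnight. Values as pIC50.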

Chain of Vps34 (PIK3C3 lipid kinase) (Q8NEB9 whole entry, species assumed): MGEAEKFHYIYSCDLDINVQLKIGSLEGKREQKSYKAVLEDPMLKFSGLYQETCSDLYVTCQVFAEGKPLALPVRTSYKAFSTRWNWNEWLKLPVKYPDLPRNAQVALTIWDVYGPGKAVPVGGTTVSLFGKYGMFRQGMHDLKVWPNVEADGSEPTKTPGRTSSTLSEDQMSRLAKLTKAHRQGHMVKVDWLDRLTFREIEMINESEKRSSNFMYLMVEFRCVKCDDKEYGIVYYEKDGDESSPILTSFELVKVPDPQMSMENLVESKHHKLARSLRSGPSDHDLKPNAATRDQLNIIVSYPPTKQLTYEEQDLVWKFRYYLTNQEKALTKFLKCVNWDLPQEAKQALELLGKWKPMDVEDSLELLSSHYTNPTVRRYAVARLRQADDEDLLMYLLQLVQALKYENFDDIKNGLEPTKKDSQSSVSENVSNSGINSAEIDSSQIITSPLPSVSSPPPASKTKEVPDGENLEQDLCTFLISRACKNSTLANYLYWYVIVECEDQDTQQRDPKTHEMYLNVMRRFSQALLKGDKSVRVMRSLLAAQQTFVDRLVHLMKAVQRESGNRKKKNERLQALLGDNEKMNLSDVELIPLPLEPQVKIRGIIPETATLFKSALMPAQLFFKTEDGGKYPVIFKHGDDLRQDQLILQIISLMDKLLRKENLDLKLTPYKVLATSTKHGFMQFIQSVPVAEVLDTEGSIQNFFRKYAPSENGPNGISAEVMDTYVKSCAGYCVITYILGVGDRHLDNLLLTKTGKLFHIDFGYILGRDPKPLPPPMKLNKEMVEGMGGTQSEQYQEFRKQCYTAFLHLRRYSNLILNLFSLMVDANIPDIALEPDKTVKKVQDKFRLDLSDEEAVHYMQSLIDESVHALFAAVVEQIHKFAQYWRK

IC50 (EF2K [1])	remaining activity at 1 µM [2]	IC50 [2]	IC50 (EF2K [3])	VPS34_1microM_% of cntrl [2]	Compound
> 3.02e-05 M	18.8%	3.47e-07 M	8.32e-07 M	–	CN1CCCN(C)c2ccc(cn2)-c2ccnc(n2)Nc2cccc(c2)CN2CCN(CC1=O)C(CO)C2 (single isomer, unassigned) [Compound 95]
> 3.02e-05 M	1.43%	1.7e-07 M	4.47e-06 M	–	O=C1CNCCCNc2ccc(cn2)-c2ccnc(n2)Nc2cccc(c2)N2CCN1CC2 [Compound 111]
> 3.02e-05 M	32.7%	–	3.24e-07 M	–	CN1CCCN(C)c2ccc(cn2)-c2ccnc(n2)Nc2cccc(c2)CN2CCN(CC1=O)CC2COCCN1CCNCC1 (stereo not drawn) [Compound 107]
2.34e-05 M	30.8%	–	4.47e-06 M	–	CN1CCCN(C)c2ccc(cn2)-c2ccnc(n2)Nc2cccc(c2)CC2(O)CCN(CC2)CC1=O [Compound 114]
5.5e-06 M	–	–	1.74e-07 M	63.22 % of cntrl	O=C1CN2CCN(CC2)Cc2cccc(c2)Nc2nccc(n2)-c2ccc(nc2)N2CCCC2CN1 (stereo not drawn) [Compound 80]
> 3.02e-05 M	23.6%	3.89e-06 M	8.71e-06 M	–	COCCN1CCNc2ccc(cn2)-c2ccnc(n2)Nc2cccc(c2)CN2CCN(CC2)CC1=O [Compound 123]
1.78e-05 M	–	9.77e-07 M	8.71e-08 M	28.59 % of cntrl	CN1CCCN(C)c2ccc(cn2)-c2ccnc(n2)Nc2cccc(c2)CN2CCN(CC1=O)CC2COCCO (single isomer, unassigned) [Compound 105]
> 3.02e-05 M	3.25%	6.92e-08 M	1.78e-06 M	–	CN1CCCN(C)c2ccc(cn2)-c2ccnc(n2)Nc2cccc(c2)CN2CCN(CC2)C(=O)C1 [Compound 83]

Second part, the compound before the results:

Compound	IC50 (EF2K [1])	remaining activity at 1 µM [2]	IC50 [2]	IC50 (EF2K [3])	VPS34_1microM_% of cntrl [2]
CN1CCCN(C)c2ccc(cn2)-c2ccnc(n2)Nc2cccc(c2)CN2CCN(CC2)C(c2ccccc2)C1=O (stereo not drawn) [Compound 64]	2.63e-05 M	64.6%	–	7.24e-07 M	–
O=C1CN2CCN(CC2)Cc2cccc(c2)Nc2nccc(n2)-c2ccc(nc2)CNCCN1 [Compound 34]	~7.24e-06 M	–	8.32e-07 M	5.25e-07 M	–
COCCN1CCNC(=O)CN2CCN(CC2)Cc2cccc(c2)Nc2nccc(n2)-c2ccc(nc2)C1 [Compound 42]	4.27e-07 M	10.2%	3.02e-07 M	3.24e-08 M	–
CN1CCCN(C)c2ccc(cn2)-c2ccnc(n2)Nc2cc(F)cc(c2)CN2CCN(CC2)CC1=O [Compound 6]	2.45e-05 M	17.4%	2.51e-07 M	6.61e-07 M	–
O=C1CN2CCN(Cc3cccc(c3)Nc3nccc(n3)-c3ccc(nc3)NCCCN1)C(CO)C2 (single isomer, unassigned) [Compound 48]	> 3.02e-05 M	–	4.27e-08 M	5.5e-06 M	3.34 % of cntrl
CN1CCCN(C)c2ccc(cn2)-c2ccnc(n2)Nc2ccc(C(=O)O)c(c2)CN2CCN(CC2)CC1=O [Compound 11]	> 3.02e-05 M	33.3%	–	4.57e-07 M	–
O=C1CN2CCN(CC2=O)Cc2cccc(c2)Nc2nccc(n2)-c2ccc(nc2)NCCCN1 [Compound 77]	> 3.02e-05 M	6.27%	1.29e-07 M	2.09e-06 M	–
CN1CCCCN(C)c2ccc(cn2)-c2ccnc(n2)Nc2cccc(c2)CN2CCN(CC2)CC1=O [Compound 20]	> 3.02e-05 M	8.85%	1.62e-07 M	1.82e-06 M	–
CC(C)N1CCCNc2ccc(cn2)-c2ccnc(n2)Nc2cccc(c2)CN2CCN(CC2)CC1=O [Compound 22]	> 3.02e-05 M	17.3%	6.17e-06 M	7.24e-06 M	–
CNC(=O)c1ccc2cc1CN1CCN(CC1)CC(=O)N(C)CCCN(C)c1ccc(cn1)-c1ccnc(n1)N2 [Compound 12]	1.05e-05 M	7.68%	4.37e-07 M	2.09e-07 M	–
